Measurements as given in PMC4800991 (Molecular pharmaceutics, 2015).

Assays:
Type in all cases: cell-based
[1] = molecular target: T1, human thiamine transporter 2 (hTHTR-2) (Homo sapiens, UniProt Q9BZV2); assay: [3H]MPP+ uptake in HEK-hTHTR-2 cells with and without fedratinib
T1 sequence (Q9BZV2 1-496): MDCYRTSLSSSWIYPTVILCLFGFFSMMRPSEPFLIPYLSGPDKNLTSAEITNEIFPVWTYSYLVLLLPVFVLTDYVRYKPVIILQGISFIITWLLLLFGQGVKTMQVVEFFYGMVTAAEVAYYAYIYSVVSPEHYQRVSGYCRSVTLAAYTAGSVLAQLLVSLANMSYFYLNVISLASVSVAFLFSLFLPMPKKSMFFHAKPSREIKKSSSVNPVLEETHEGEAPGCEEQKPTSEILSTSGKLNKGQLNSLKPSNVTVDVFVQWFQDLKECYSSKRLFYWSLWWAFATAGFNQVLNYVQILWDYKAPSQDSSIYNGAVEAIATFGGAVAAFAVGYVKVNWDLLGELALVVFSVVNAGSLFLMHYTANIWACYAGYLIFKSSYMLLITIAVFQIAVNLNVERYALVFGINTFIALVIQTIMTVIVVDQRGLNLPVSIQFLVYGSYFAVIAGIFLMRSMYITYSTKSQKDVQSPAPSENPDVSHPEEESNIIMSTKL

[2] = molecular target: T1, human thiamine transporter 2 (hTHTR-2); assay: saturable […]metformin uptake
[3] = molecular target: T1, human thiamine transporter 2 (hTHTR-2); assay: inhibition of [3H]thiamine uptake in HEK-hTHTR-2 cells
[4] = molecular target: T1, human thiamine transporter 2 (hTHTR-2); assay: inhibition of [3H]thiamine and […]metformin uptake in HEK-hTHTR-2 cells at […]
[5] = molecular target: T1, human thiamine transporter 2 (hTHTR-2); assay: saturable [3H]thiamine uptake

C[n+]1ccc(-c2ccccc2)cc1 [MPP+, 1-methyl-4-phenylpyridinium]
[3H]MPP+ uptake in HEK-hTHTR-2 cells with and without fedratinib [1]: 1-methyl-4-phenylpyridinium (MPP^+) and the histamine H2-receptor antagonist famotidine were substrates of hTHTR-2

CN(C)C(=N)N=C(N)N [metformin, 1,1-dimethylbiguanide]
IC50 [2]: 680 ± 140 µM

[H]/N=C(/N)N/C(=N/[H])NCCc1ccccc1 [phenformin]
IC50 [3]: 244 ± 28.4 µM

Cc1ncc(C[n+]2cccc(CCO)c2C)c(N)n1 [pyrithiamine]
inhibition of [3H]thiamine and [14C]metformin uptake in HEK-hTHTR-2 cells at 200 [4]: antithiamine analogues (amprolium and pyrithiamine) and prescription drugs (chloroquine, verapamil, and famotidine) were shown to be inhibitors

Cc1ncc(C[n+]2csc(CCO)c2C)c(N)n1 [thiamine]
IC50 [5]: 1030 ± 120 nM
